Experiments:
[1] = target: angiotensin II AT1 receptor; experiment: Assay A: Angiotensin II binding activity (125I-AII displacement, rat uterine membrane preparation)
rabbit aortic rings = experiment: Assay B: In vitro vascular smooth muscle response for AII (antagonist activity, pA2); assay type: cell-based; conditions: Oryctolagus cuniculus, in vitro vascular smooth muscle response; two values per cell separated by / are separate determinations; read-out: Assay B pA2 (converted)
Experimental: Assay B: In Vitro Vascular Smooth Muscle-response for AII
The compounds of the invention were tested for antagonist activity in rabbit aortic rings. Male New Zealand white rabbits (2-2.5 kg) were sacrificed using an overdose of pentobarbital and exsanguinated via the carotid arteries. The thoracic aorta was removed, cleaned of adherent fat and connective tissue and then cut into 3-mm ring segments. The endothelium was removed from the rings by gently sliding a rolled-up piece of filter paper into the vessel lumen. The rings were then mounted in a water-jacketed tissue bath, maintained at 37° C., between moveable and fixed ends of a stainless steel wire with the moveable end attached to an FT03 Grass transducer coupled to a Model 7D Grass Polygraph for recording isometric force responses. The bath was filled with 20 ml of oxygenated (95% oxygen/5% carbon dioxide) Krebs solution of the following composition (mM): 130 NaCl, […], 15 KCl, 1.2 NaH2PO4, 1.2 MgSO4, 2.5 CaCl2, and 11.4 glucose. The preparations were equilibrated for one hour before approximately one gram of passive tension was placed on the rings. Angiotensin II concentration-response curves were then recorded (3×10^−10 to 1×10^−5 M). Each concentration of AII was allowed to elicit its maximal contraction, and then AII was washed out repeatedly for 30 minutes before rechallenging with a higher concentration of AII. Aorta rings were exposed to the test antagonist at […] for 5 minutes before challenging with AII. Adjacent segments of the same aorta ring were used for all concentration-response curves in the presence or absence of the test antagonist. The effectiveness of the test compound was expressed in terms of pA2 values and were calculated according to H. O. Schild [Br. J. Pharmacol, Chemother., 2,189-206 (1947)]. The pA2 value is the concentration of the antagonist which increases the EC50 value for AII by a factor of two. Each test antagonist was evaluated in aorta rings from two rabbits.

SMILES | IC50 [1] [nM] | Kb (rabbit aortic rings) [nM]
CCCCc1nc(CCCC2CCCCC2)nn1Cc1ccc(-c2ccccc2-c2nnn[nH]2)cc1 [Compound 58] | 140 | 355
CCCCc1nc(CC23CC4CC(CC(C4)C2)C3)nn1Cc1ccc(-c2ccccc2-c2nnn[nH]2)cc1 [Compound 62] | 26 | 2.04
CCCCc1nc(CCC(=O)O)nn1Cc1ccc(-c2ccccc2-c2nnn[nH]2)cc1 [Compound 63] | 61 | 17
CCCCc1nc(CCC(=O)O)n(Cc2ccc(-c3ccccc3-c3nnn[nH]3)cc2)n1 [Compound 64] | 54 | 100
CCCCc1nc(C2CCCCC2)n(Cc2ccc(-c3ccccc3-c3nnn[nH]3)cc2)n1 [Compound 65] | 23 | 14.1
CCCCc1nc(CCCNC(=O)OC(C)(C)C)n(Cc2ccc(-c3ccccc3-c3nnn[nH]3)cc2)n1 [Compound 67] | 3100 | 1320
CCCCc1nc(CCCN)nn1Cc1ccc(-c2ccccc2-c2nnn[nH]2)cc1 [Compound 72] | 83 | 776
CCCCc1nc(CC2CCCCC2)n(Cc2ccc(-c3ccccc3-c3nnn[nH]3)cc2)n1 [Compound 73] | 790 | 22.4
CCCCc1nc(CC2CCCCC2)nn1Cc1ccc(-c2ccccc2-c2nnn[nH]2)cc1 [Compound 74] | 6.5 | 2.75
CCCCc1nc(CC)n(Cc2ccc(-c3ccccc3C(=O)O)cc2)n1 [Compound 76] | 5400 | 3020
CCCCc1nc(C)n(Cc2ccc(-c3ccccc3C(=O)O)cc2)n1 [Compound 77] | 15000 | 1700
CCCCc1nn(CCCC)c(=O)n1Cc1ccc(-c2ccccc2-c2nnn[nH]2)cc1 [Compound 79] | 4.9 | 0.631
CCCCc1nn(CC(=O)C23CC4CC(CC(C4)C2)C3)c(=O)n1Cc1ccc(-c2ccccc2-c2nn[nH]n2)cc1 [Compound 80] | 25 | 7.94
CCCCCCn1nc(CCCC)n(Cc2ccc(-c3ccccc3-c3nn[nH]n3)cc2)c1=O [Compound 85] | 8.7 | 1.26
CCCCc1nn(CC(=O)OCC)c(=O)n1Cc1ccc(-c2ccccc2-c2nn[nH]n2)cc1 [Compound 86] | 9 | 15.8
CCCCc1nn(CC(=O)O)c(=O)n1Cc1ccc(-c2ccccc2-c2nn[nH]n2)cc1 [Compound 87] | 91 | 15.8
CCCCc1nn(CCC2CCCCC2)c(=O)n1Cc1ccc(-c2ccccc2-c2nn[nH]n2)cc1 [Compound 89] | 18 | 12.6
CCCCCn1nc(CCCC)n(Cc2ccc(-c3ccccc3-c3nn[nH]n3)cc2)c1=O [Compound 90] | 5.6 | 1
CCCCc1nn(CCC(C)CC(C)(C)C)c(=O)n1Cc1ccc(-c2ccccc2-c2nn[nH]n2)cc1 (centres unmarked) [Compound 92] | 35 | 12.6
CCCCc1nn(C(=O)CCC)c(=O)n1Cc1ccc(-c2ccccc2-c2nn[nH]n2)cc1 [Compound 95] | 66 | 6.31

SMILES | IC50 [1] [nM] | Kb (rabbit aortic rings) [nM]
CCCCc1nn(CC(=O)c2cc(OC)ccc2OC)c(=O)n1Cc1ccc(-c2ccccc2-c2nn[nH]n2)cc1 [Compound 96] | 21 | 10
CCCCc1nn(CC(OCc2ccccc2)c2ccccc2)c(=O)n1Cc1ccc(-c2ccccc2-c2nn[nH]n2)cc1 (centres unmarked) [Compound 97] | 280 | 20
CCCCc1nn(CC(O)c2cc(OC)ccc2OC)c(=O)n1Cc1ccc(-c2ccccc2-c2nn[nH]n2)cc1 (centres unmarked) [Compound 98] | 22 | 7.94
CCCCc1nn(Cc2ccc3ccccc3c2)c(=O)n1Cc1ccc(-c2ccccc2-c2nn[nH]n2)cc1 [Compound 99] | 280 | 316
CCCCc1nn(C(CC(=O)OCC)C(=O)c2ccccc2)c(=O)n1Cc1ccc(-c2ccccc2-c2nn[nH]n2)cc1 (centres unmarked) [Compound 101] | 36 | 15.8
CCCCc1nn(C(C)(C)C(=O)c2ccccc2)c(=O)n1Cc1ccc(-c2ccccc2-c2nn[nH]n2)cc1 [Compound 102] | 43 | 20
CCCCc1nn(CCCCC(=O)O)c(=O)n1Cc1ccc(-c2ccccc2-c2nn[nH]n2)cc1 [Compound 103] | 12 | 10
CCCCc1nn(CC2CC2)c(=O)n1Cc1ccc(-c2ccccc2-c2nn[nH]n2)cc1 [Compound 104] | 15 | 10
CCCCn1nc(C(C#N)CCC)n(Cc2ccc(-c3ccccc3-c3nn[nH]n3)cc2)c1=O (centres unmarked) [Compound 106] | 48 | 20
CCCCc1nn(CC(OCC(=O)OCC)c2ccccc2)c(=O)n1Cc1ccc(-c2ccccc2-c2nn[nH]n2)cc1 (centres unmarked) [Compound 107] | 180 | 5.01
CCCCc1nc2c(Cl)nnc(Cl)c2n1Cc1ccc(-c2ccccc2-c2nnn[nH]2)cc1 [Compound 110] | 590 | 398
CCCCc1nc2c(OCC)nnc(OCC)c2n1Cc1ccc(-c2ccccc2-c2nnn[nH]2)cc1 [Compound 112] | 2000 | 6310
CCCCc1nc(Cc2ccc(-c3ccccc3C(=O)O)cc2)n(CCCC)n1 [Compound 126] | 240 | 63.1
CCCCc1nc(Cc2ccc(-c3ccccc3C(=O)O)cc2)nn1CCCC [Compound 127] | 12000 | 11000
CCCCc1nc(Cc2ccc(-c3ccccc3-c3nnn[nH]3)cc2)n(CCCC)n1 [Compound 128] | 16 | 2.34
CCCCc1nc(Cc2ccc(-c3ccccc3-c3nnn[nH]3)cc2)nn1CCCC [Compound 129] | 6700 | 5010
CCCCn1nc(C(F)(F)CCC)nc1Cc1ccc(-c2ccccc2-c2nnn[nH]2)cc1 [Compound 130] | 40 | 7.94
CCCCc1cn(CCCC)c(=O)n1Cc1ccc(-c2ccccc2-c2nnn[nH]2)cc1 [Compound 132] | 12 | 2.51
CCCCc1c(C)n(CCCC)c(=O)n1Cc1ccc(-c2ccccc2-c2nnn[nH]2)cc1 [Compound 137] | 220 | 5.01
CCCc1cn(CCC)c(=O)n1Cc1ccc(-c2ccccc2-c2nnn[nH]2)cc1 [Compound 138] | 130 | 6.31

SMILES | IC50 [1] [nM] | Kb (rabbit aortic rings) [nM]
CCCCc1nc(CCCC)n(Cc2ccc(-n3c(Br)ccc3-c3nnn[nH]3)cc2)n1 [Compound 141] | 0.11 | 9.55
CCCCn1nc(CCc2ccccc2)nc1Cc1ccc(-c2ccccc2-c2nnn[nH]2)nc1 [Compound 151] | 17 | 17.4
CCCCn1nc(/C=C/c2cccs2)nc1Cc1ccc(-c2ccccc2-c2nnn[nH]2)nc1 [Compound 154] | 97 | 6.46
CCCCc1nc(Cc2ccc(-c3ccccc3-c3nnn[nH]3)nc2)n(CC(CC)CC)n1 [Compound 157] | 530 | 603
CCCCn1nc(C(=O)CCC)nc1Cc1ccc(-c2ccccc2-c2nnn[nH]2)nc1 [Compound 160] | 64 | 13.5
CCCn1nc(C(C)(F)F)nc1Cc1ccc(-c2ccccc2-c2nnn[nH]2)nc1 [Compound 165] | 410 | 126
CCCCn1nc(C(C)(F)F)nc1Cc1ccc(-c2ccccc2-c2nnn[nH]2)nc1 [Compound 166] | 160 | 26.9
CCCn1nc(C(F)(F)CC)nc1Cc1ccc(-c2ccccc2-c2nnn[nH]2)nc1 [Compound 167] | 370 | 83.2
CCCCn1nc(C(F)(F)CC)nc1Cc1ccc(-c2ccccc2-c2nnn[nH]2)nc1 [Compound 168] | 420 | 20.4
CCCCn1nc(C(=O)NC)nc1Cc1ccc(-c2ccccc2-c2nnn[nH]2)nc1 [Compound 172] | 70 | 70.8
CCCn1nc(C(OC)OC)nc1Cc1ccc(-c2ccccc2-c2nnn[nH]2)nc1 [Compound 174] | 180 | 51.3
CCCCn1nc(C(OC(C)C)OC(C)C)nc1Cc1ccc(-c2ccccc2-c2nnn[nH]2)nc1 [Compound 178] | 88 | 28.8
CCCCn1nc(C=O)nc1Cc1ccc(-c2ccccc2-c2nnn[nH]2)nc1 [Compound 179] | 310 | 214
CCCCc1nc(Cc2ccc(-c3ccccc3-c3nnn[nH]3)nc2)n(CC(C)(C)C)n1 [Compound 184] | 1100 | 166
CCCCc1nc(CCCC)n(Cc2ccc(-c3cnccc3-c3nnn[nH]3)cc2)n1 [Compound 244] | 150 | 67.6
CCCc1nc(CCC)n(Cc2ccc(-c3ccccc3-c3nnn[nH]3)nc2)n1 [Compound 246] | 72 | 34.7
CCCCc1nc(C(=O)NC)nn1Cc1ccc(-c2ccccc2-c2nnn[nH]2)nc1 [Compound 257] | 160 | 234
CCCCc1nc(C(=O)NC)n(Cc2ccc(-c3ccccc3-c3nnn[nH]3)nc2)n1 [Compound 258] | 350 | 145

From patent US6653306B1, “Epoxy-steroidal aldosterone antagonist and angiotensin II antagonist combination therapy” (G.D. Searle & Co., priority 1995, dated 2003)
